Measurements reported in the supplement of paper PMC10307832.

Experiments:
Assay in all cases: relative viability (nuclei count vs DMSO), 5 days (fraction); higher = more cells survive
EHT 1864 + Bortezomib = compound: C1COCCN1CC2=CC(=O)C(=CO2)OCCCCCSC3=C4C=CC(=CC4=NC=C3)C(F)(F)F [EHT 1864] + CC(C)C[C@H](NC(=O)[C@H](Cc1ccccc1)NC(=O)c1cnccn1)B(O)O [Bortezomib] (partner 0.002 µM)
Procedure, shortened: (§1)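 Relative viability is defined as nuclei in treated wells over nuclei in vehicle wells. Duplicate plates were run and medians reported. Lung cancer cell lines in 1536-well plates were dosed by pin tool one day after seeding, with one drug or with a fixed anchor-drug dose plus five library-drug doses (not always all listed) in √10 steps, and nuclei were counted after 5 days.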

EHT 1864 + Lapatinib = compound: C1COCCN1CC2=CC(=O)C(=CO2)OCCCCCSC3=C4C=CC(=CC4=NC=C3)C(F)(F)F [EHT 1864] + CS(=O)(=O)CCNCc1ccc(-c2ccc3ncnc(Nc4ccc(OCc5cccc(F)c5)c(Cl)c4)c3c2)o1 [Lapatinib] (partner 2 µM)
Procedure, shortened: as §1

EHT 1864 + AZD7762 = compound: C1COCCN1CC2=CC(=O)C(=CO2)OCCCCCSC3=C4C=CC(=CC4=NC=C3)C(F)(F)F [EHT 1864] + NC(=O)Nc1cc(-c2cccc(F)c2)sc1C(=O)N[C@H]1CCCNC1 [AZD7762] (partner 0.2 µM)
Procedure, shortened: as §1

EHT 1864 + Decitabine = compound: C1COCCN1CC2=CC(=O)C(=CO2)OCCCCCSC3=C4C=CC(=CC4=NC=C3)C(F)(F)F [EHT 1864] + Nc1ncn([C@H]2C[C@H](O)[C@@H](CO)O2)c(=O)n1 [Decitabine] (partner 2 µM)
Procedure, shortened: as §1

| Cell Line | relative viability (EHT 1864 + Bortezomib; first compound 0.04 µM) | relative viability (EHT 1864 + Bortezomib; first compound 0.1265 µM) | relative viability (EHT 1864 + Bortezomib; first compound 0.4 µM) | relative viability (EHT 1864 + Bortezomib; first compound 1.265 µM) | relative viability (EHT 1864 + Bortezomib; first compound 4 µM) | relative viability (EHT 1864 + Lapatinib; first compound 0.04 µM) | relative viability (EHT 1864 + Lapatinib; first compound 0.4 µM) | relative viability (EHT 1864 + Lapatinib; first compound 4 µM) | relative viability (EHT 1864 + AZD7762; first compound 0.04 µM) | relative viability (EHT 1864 + AZD7762; first compound 0.1265 µM) | relative viability (EHT 1864 + AZD7762; first compound 0.4 µM) | relative viability (EHT 1864 + AZD7762; first compound 1.265 µM) | relative viability (EHT 1864 + AZD7762; first compound 4 µM) | relative viability (EHT 1864 + Decitabine; first compound 0.04 µM) | relative viability (EHT 1864 + Decitabine; first compound 0.1265 µM) | relative viability (EHT 1864 + Decitabine; first compound 0.4 µM) | relative viability (EHT 1864 + Decitabine; first compound 1.265 µM) | relative viability (EHT 1864 + Decitabine; first compound 4 µM) | relative viability (EHT 1864 + Lapatinib; first compound 0.1265 µM) | relative viability (EHT 1864 + Lapatinib; first compound 1.265 µM) |
| --- | --- | --- | --- | --- | --- | --- | --- | --- | --- | --- | --- | --- | --- | --- | --- | --- | --- | --- | --- | --- |
| IA-LM | 0.821 | 0.553 | 0.956 | 0.709 | 0.536 | 0.704 | 0.74 | 0.622 |  |  |  |  |  |  |  |  |  |  |  |  |
| LCLC-103H | 1.18 | 1.01 | 1.14 | 1.06 | 1.02 |  |  |  | 0.823 | 0.686 | 0.818 | 0.698 | 0.5 | 0.734 | 0.67 | 0.744 | 0.708 | 0.66 |  |  |
| LK-2 |  |  |  |  |  | 1.05 | 0.911 | 0.881 | 0.462 |  | 0.296 | 0.443 | 0.286 | 0.292 | 0.312 | 0.169 | 0.333 | 0.265 | 0.797 | 1.03 |
| NCI-H358 |  |  |  |  |  | 0.477 | 0.441 | 0.434 | 0.558 | 0.587 | 0.536 | 0.556 | 0.456 | 0.238 | 0.241 | 0.212 | 0.263 | 0.192 |  | 0.413 |
| NCI-H441 | 0.381 | 0.372 | 0.505 | 0.447 | 0.285 |  |  |  | 1.01 |  | 1.04 | 1.11 | 1.5 | 0.246 |  | 0.241 | 0.234 | 0.241 |  |  |
| NCI-H520 | 0.685 | 0.339 | 0.629 | 0.773 | 0.323 | 0.833 | 0.834 | 0.694 |  |  |  |  |  | 0.545 | 0.496 | 0.535 | 0.493 | 0.445 | 0.743 | 0.913 |
| NCI-H522 |  |  |  |  |  |  |  |  | 0.844 | 0.774 | 0.802 | 0.973 | 1.07 | 0.592 | 0.685 | 0.709 | 0.702 | 0.703 |  |  |
| NCI-H661 | 0.866 | 0.705 | 0.769 | 0.655 | 0.716 | 0.429 | 0.511 | 0.503 |  |  |  |  |  | 0.609 | 0.527 | 0.581 | 0.576 | 0.514 | 0.488 | 0.429 |
| NCI-H1299 | 1.02 | 0.986 | 0.993 | 0.994 | 0.917 | 0.969 | 0.949 | 0.909 |  |  |  |  |  |  |  |  |  |  | 0.904 | 0.931 |
| NCI-H1395 |  |  |  |  |  | 1.04 | 1.05 | 0.861 | 0.394 | 0.37 | 0.389 | 0.437 | 0.436 | 0.722 | 0.676 | 0.709 | 0.657 | 0.673 | 0.877 | 1.01 |
| NCI-H1563 | 0.901 | 0.853 | 0.861 | 0.89 | 0.751 | 1.01 | 0.953 | 0.813 |  |  |  |  |  |  |  |  |  |  | 0.986 | 0.949 |
| NCI-H1648 |  |  |  |  |  |  |  |  | 0.72 |  | 0.609 | 0.662 | 0.866 | 0.564 |  | 0.471 | 0.502 | 0.643 |  |  |
| NCI-H1650 | 0.202 | 0.205 | 0.228 | 0.215 | 0.202 | 0.741 | 0.812 | 0.589 |  |  |  |  |  | 0.411 | 0.385 | 0.435 | 0.47 | 0.5 | 0.443 | 0.841 |
| NCI-H1703 | 0.253 | 0.427 | 0.363 | 0.307 | 0.315 | 0.796 | 1.21 | 0.854 | 0.128 |  | 0.118 | 0.128 | 0.15 |  |  |  |  |  | 0.857 | 1.01 |
| NCI-H1793 |  |  |  |  |  |  | 0.667 | 0.638 | 0.609 | 0.458 | 0.496 | 0.193 | 0.298 | 0.47 | 0.466 | 0.506 | 0.56 | 0.614 | 0.543 | 0.602 |
| NCI-H1944 |  |  |  |  |  | 0.907 | 0.916 | 0.817 | 0.5 |  | 0.511 | 0.563 | 0.665 | 0.43 |  | 0.429 | 0.433 | 0.417 |  | 0.858 |
| NCI-H2009 | 0.881 | 0.794 | 1.04 | 0.918 | 0.936 | 0.77 | 0.921 | 0.824 |  |  |  |  |  | 0.357 | 0.356 | 0.354 | 0.382 | 0.412 | 0.749 | 0.963 |
| NCI-H2023 | 0.911 | 0.634 | 0.867 | 1.04 | 0.953 | 0.813 | 0.727 | 0.84 |  |  |  |  |  | 0.213 | 0.212 | 0.223 | 0.259 | 0.176 | 0.558 | 0.919 |
| NCI-H2170 |  |  |  |  |  | 0.272 | 0.283 | 0.271 | 0.77 | 0.764 | 0.9 | 0.86 | 0.963 | 0.488 | 0.451 | 0.488 | 0.473 | 0.467 | 0.268 | 0.239 |
| NCI-H2228 | 0.935 | 1.13 | 0.984 | 0.904 | 1.11 | 1.08 | 1.03 | 1.02 |  |  |  |  |  |  |  |  |  |  | 0.68 | 1.13 |
| NCI-H2342 |  |  |  |  |  |  |  |  | 0.426 | 0.438 | 0.472 | 0.51 | 0.492 | 0.712 | 0.562 | 0.787 | 0.751 | 0.763 |  |  |
| SK-LU-1 | 1.22 |  | 1.37 | 1.37 | 1.07 | 0.91 | 0.795 | 0.781 |  |  |  |  |  | 0.732 | 0.632 | 0.567 | 0.657 | 0.658 | 0.65 | 0.878 |
| SK-MES-1 |  |  |  |  |  | 0.469 | 0.517 | 0.443 |  |  |  |  |  | 0.365 | 0.398 | 0.377 | 0.448 | 0.41 | 0.48 | 0.439 |
| SW 1573 | 1.09 | 0.923 | 1.01 | 0.975 | 0.674 | 1.22 | 1.12 | 1.06 |  |  |  |  |  | 0.655 | 0.478 | 0.463 | 0.55 | 0.339 | 0.912 | 1.03 |
| UMC-11 | 0.675 | 0.521 | 0.719 | 0.255 | 0.547 | 0.724 | 1.05 | 0.987 |  |  |  |  |  | 0.447 | 1.15 | 0.731 | 0.693 | 0.736 |  | 0.938 |
